These results are taken from PubChem BioAssay AID328 (DTP/NCI, 2004).

SMILES strings stand for the structures. Several values for one entry are separate records, joined by “and”; a condition that tells them apart may be missing. Identical values can stand only once. Inconclusive results and toxic doses are left out.

The assay has as its system BDF1 mice, P388 leukemia ip, median survival T/C. In words: NCI In Vivo Anticancer Drug Screen. Data for tumor model P388 Leukemia (intraperitoneal) in B6D2F1 (BDF1) mice. The settings on record: endpoint: median survival time, higher = longer survival. In short, it runs like this:
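Vehicle-dosed animals serve as the reference; survival of compound-dosed, tumour-implanted mice is divided by it.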

Where [1] appears, read: dose: 100.0 mg/kg/injection, schedule: Q01DX009 (ip), vehicle: Klucel (hydroxypropylcellulose) (HPC).
Where [2] appears, read: dose: 100.0 mg/kg/injection, schedule: Q04DX003 (ip), vehicle: Klucel (hydroxypropylcellulose) (HPC).
Setting [3] is: dose: 200.0 mg/kg/injection, schedule: Q01DX009 (ip), vehicle: Klucel (hydroxypropylcellulose) (HPC).
The mark [4] stands for this setting: dose: 200.0 mg/kg/injection, schedule: Q04DX003 (ip), vehicle: Klucel (hydroxypropylcellulose) (HPC).
[5] abbreviates: dose: 50.0 mg/kg/injection, schedule: Q01DX009 (ip), vehicle: saline.
[6] abbreviates: dose: 100.0 mg/kg/injection, schedule: Q01DX009 (ip), vehicle: saline with Tween-80.
The mark [7] stands for this setting: dose: 200.0 mg/kg/injection, schedule: Q01DX009 (ip), vehicle: saline with Tween-80.
Where [8] appears, read: dose: 50.0 mg/kg/injection, schedule: Q01DX009 (ip), vehicle: saline with Tween-80.
The mark [9] stands for this setting: dose: 100.0 mg/kg/injection, schedule: Q04DX003 (ip), vehicle: saline with Tween-80.
The mark [10] stands for this setting: dose: 200.0 mg/kg/injection, schedule: Q04DX003 (ip), vehicle: saline with Tween-80.
Where [11] appears, read: dose: 400.0 mg/kg/injection, schedule: Q04DX003 (ip), vehicle: saline with Tween-80.
Where [12] appears, read: dose: 400.0 mg/kg/injection, schedule: Q01DX009 (ip), vehicle: Klucel (hydroxypropylcellulose) (HPC).
Where [13] appears, read: dose: 200.0 mg/kg/injection, schedule: Q01DX009 (ip), vehicle: saline.

Consider `C1=CC=CN(c2ccccc2)C=C1`, for which the T/C was 90 % of control (dose: 50.0 mg/kg/injection, schedule: Q01DX009 (ip), vehicle: Klucel (hydroxypropylcellulose) (HPC)); 105 % of control under setting [1]; 95 % of control under setting [2]; 105 % of control under setting [3]; 91 % of control under setting [4]; 100 % of control (dose: 400.0 mg/kg/injection, schedule: Q04DX003 (ip), vehicle: Klucel (hydroxypropylcellulose) (HPC)).

Take `N#CC1(c2ccc(Cl)cc2)CC1`: the T/C reads like this: under setting [1], 95 % of control; under setting [2], 92 % of control; under setting [3], 100 % of control; under setting [4], 100 % of control.

Take `O=P(N1CCCCC1)(N1CC1)N1CC1`: the T/C reads like this: (dose: 2.2 mg/kg/injection, schedule: Q01DX009 (ip), vehicle: saline) 103 % of control; (dose: 3.3 mg/kg/injection, schedule: Q01DX009 (ip), vehicle: saline) 118 % of control; (dose: 7.5 mg/kg/injection, schedule: Q01DX009 (ip), vehicle: saline) 185 % of control; (dose: 25.0 mg/kg/injection, schedule: Q04DX003 (ip), vehicle: saline) 225 % of control.

`C[n+]1c(-c2ccc(Cl)cc2Cl)c2cc([N+](=O)[O-])ccc2c2ccccc21`: the T/C was 104 % of control (dose: 3.12 mg/kg/injection, schedule: Q01DX009 (ip), vehicle: water); 88 % of control and 104 % of control and 112 % of control (dose: 6.25 mg/kg/injection, schedule: Q01DX009 (ip), vehicle: water); 110 % of control and 119 % of control (dose: 12.5 mg/kg/injection, schedule: Q01DX009 (ip), vehicle: water); 104 % of control (2×) and 112 % of control (dose: 25.0 mg/kg/injection, schedule: Q01DX009 (ip), vehicle: water); 101 % of control (dose: 50.0 mg/kg/injection, schedule: Q01DX009 (ip), vehicle: water).

`O=C1c2ccccc2C(=O)c2c(O)c(N3CCOCC3)cc(O)c21`: the T/C reads like this: (dose: 1.0 mg/kg/injection, schedule: Q01DX009 (ip), vehicle: water) 121 % of control; (dose: 2.0 mg/kg/injection, schedule: Q01DX009 (ip), vehicle: water) 104 % of control; (dose: 4.0 mg/kg/injection, schedule: Q01DX009 (ip), vehicle: water) 104 % of control; (dose: 8.0 mg/kg/injection, schedule: Q01DX009 (ip), vehicle: water) 89 % of control; (dose: 16.0 mg/kg/injection, schedule: Q01DX009 (ip), vehicle: water) 111 % of control; (dose: 32.0 mg/kg/injection, schedule: Q01DX009 (ip), vehicle: water) 113 % of control. For the same compound, the T/C under setting [5] was 90 % of control.

As to `O=C(CCCC(O)(C1CC1)C1CC1)C1CC1`, the T/C is 100 % of control under setting [1] and 115 % of control under setting [3].

Take `CC1(c2ccc(-c3ccccc3)cc2)NC(=O)NC1=O` (centres undefined): the T/C was 91 % of control under setting [6]; 95 % of control under setting [7]; 88 % of control (dose: 400.0 mg/kg/injection, schedule: Q01DX009 (ip), vehicle: saline with Tween-80).

In the case of `O=c1c(N=Nc2ccccc2)c[nH]n1-c1ccccc1`, the T/C (dose: 62.5 mg/kg/injection, schedule: Q01DX009 (ip), vehicle: saline with Tween-80) was 90 % of control and the T/C (dose: 250.0 mg/kg/injection, schedule: Q01DX009 (ip), vehicle: saline with Tween-80) is 88 % of control.

Turning to `O=P(O)(Oc1ccccc1)Oc1ccccc1.[Al]`, the T/C under setting [8] is 104 % of control, the T/C under setting [6] is 95 % of control and the T/C under setting [7] was 95 % of control.

As for `FC(F)(F)c1nc2nc(Cl)c(Cl)nc2[nH]1`, the T/C is 100 % of control (dose: 10.0 mg/kg/injection, schedule: Q01DX009 (ip), vehicle: other); 109 % of control (dose: 20.0 mg/kg/injection, schedule: Q01DX009 (ip), vehicle: other); 120 % of control (dose: 26.6 mg/kg/injection, schedule: Q01DX009 (ip), vehicle: other); 118 % of control (dose: 44.0 mg/kg/injection, schedule: Q04DX003 (ip), vehicle: other); 150 % of control (dose: 100.0 mg/kg/injection, schedule: Q04DX003 (ip), vehicle: other).

For `O=c1[nH]cc(F)c(=O)n1C1OC(CO)C(O)C1O` (centres undefined), the T/C by setting is: (dose: 0.75 mg/kg/injection, schedule: Q01DX009 (ip), vehicle: saline) 169 % of control and 180 % of control; (dose: 1.5 mg/kg/injection, schedule: Q01DX009 (ip), vehicle: saline) 162 % of control and 217 % of control; (dose: 3.0 mg/kg/injection, schedule: Q01DX009 (ip), vehicle: saline) 230 % of control and 188 % of control; (dose: 6.0 mg/kg/injection, schedule: Q01DX009 (ip), vehicle: saline) 100 % of control.

`CCCCCCCCCSC(=S)N(C)NC(=O)c1ccccn1`: the T/C runs as follows: under setting [8], 98 % of control; under setting [6], 98 % of control.

As for `CP(O)(=S)C1CCCCC1` (centres undefined) (tested in a mixture with another compound), the T/C reads like this: (dose: 50.0 mg/kg/injection, schedule: Q01DX005 (ip), vehicle: saline) 94 % of control; (dose: 100.0 mg/kg/injection, schedule: Q01DX005 (ip), vehicle: saline) 91 % of control; (dose: 200.0 mg/kg/injection, schedule: Q01DX005 (ip), vehicle: saline) 90 % of control.

Consider `CCCCCCCCCCCCCCCCCCNC(=S)N/N=C/c1ccc(Cl)cc1Cl`, for which the T/C (dose: 50.0 mg/kg/injection, schedule: Q04DX003 (ip), vehicle: Klucel (hydroxypropylcellulose) (HPC)) is 105 % of control; the T/C under setting [2] is 90 % of control; the T/C under setting [9] is 100 % of control; the T/C under setting [10] is 100 % of control; the T/C under setting [11] is 100 % of control.

`Cc1cccc(C)c1N=CNc1c(C)cccc1C.[Cu+2]`: the T/C reads like this: (dose: 25.0 mg/kg/injection, schedule: Q01DX009 (ip), vehicle: saline with Tween-80) 103 % of control; under setting [8], 86 % of control.

As to `CCCCCCCCCCCCSCCSCCSCCCCCCCCCCCC`, the T/C (dose: 100.0 mg/kg/injection, schedule: Q01DX001 (ip), vehicle: saline with Tween-80) is 95 % of control; the T/C (dose: 200.0 mg/kg/injection, schedule: Q01DX001 (ip), vehicle: saline with Tween-80) was 95 % of control; the T/C (dose: 400.0 mg/kg/injection, schedule: Q01DX001 (ip), vehicle: saline with Tween-80) is 90 % of control.

On to `CC(=O)OC1CCC(C)(C2CCC3(C)C(C(C)CCCC(C)C)CCC3C2CC(=O)O)C(=O)C1` (centres undefined), for which the T/C runs as follows: under setting [1], 90 % of control; under setting [3], 90 % of control; under setting [12], 95 % of control.

For the compound `CCCCCCCCOc1cc(OCCCCCCCC)c2c(ccc3ccccc32)c1`, the T/C is 97 % of control under setting [9], 88 % of control under setting [10] and 94 % of control under setting [11].

For the compound `C[n+]1ccc(NC(=O)c2ccc(NC(=O)c3cccc(C(=O)Nc4ccc(C(=O)Nc5cc[n+](C)cc5)cc4)c3)cc2)cc1`, the T/C is, setting by setting: (dose: 66.0 mg/kg/injection, schedule: Q04DX003 (ip), vehicle: saline with Tween-80) 160 % of control; under setting [9], 239 % of control.

Turning to `NC(=NCCCC(NC(=O)c1ccccc1)C(=O)O)NC(=O)c1ccccc1` (centres undefined), the T/C runs as follows: under setting [8], 103 % of control; under setting [6], 120 % of control; under setting [7], 118 % of control.

Take `Nc1nc(N)c(N=O)c(Nc2ccc(Cl)c(Cl)c2)n1`: the T/C is, setting by setting: under setting [8], 109 % of control; under setting [6], 109 % of control; under setting [7], 95 % of control.

With `CCNC(=O)c1cc2cccc(OC)c2oc1=N`, the T/C under setting [13] was 86 % of control.

For the compound `NC(N)=NCCCCCC(=O)Oc1ccc([N+](=O)[O-])cc1`, the T/C runs as follows: under setting [5], 96 % of control; (dose: 50.0 mg/kg/injection, schedule: Q04DX003 (ip), vehicle: saline) 90 % of control and 91 % of control; (dose: 100.0 mg/kg/injection, schedule: Q01DX009 (ip), vehicle: saline) 99 % of control; (dose: 100.0 mg/kg/injection, schedule: Q04DX003 (ip), vehicle: saline) 87 % of control and 90 % of control; under setting [13], 115 % of control; (dose: 200.0 mg/kg/injection, schedule: Q04DX003 (ip), vehicle: saline) 91 % of control and 100 % of control.

Turning to `CCCCCCCCCCNc1ccc(NCCCCCCCCCC)cc1`, the T/C under setting [1] is 100 % of control, the T/C under setting [2] was 120 % of control and the T/C under setting [12] was 100 % of control.
